# Reference: patent US20240358693A1, “METHODS OF TREATING PAIN” (Aisa Pharma, Inc., priority 2023, published 2024)
# Tested on: participants with SSc-RP
# Assay: Scleroderma Health Assessment Questionnaire (SHAQ): disability indices and visual analog scales
# Type: in vivo, human
# Procedure, shortened: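 Participants with SSc-RP completed the SHAQ at screening and each in-clinic visit. Standard and alternative disability indices (eight categories, 0–3; standard adjusts for aids/assistance) plus Raynaud's VAS on interference over the past 7 days. Reported as absolute change from baseline to end of each dosing period.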
# [1] = Modified ITT, Part A, dose Cilnidipine 10 mg, Tadalafil 5 mg, or 10 mg + 5 mg
# [2] = PP Population, Part A, sensitivity analysis, cilnidipine 10 mg and/or tadalafil 5 mg as labelled
# [3] = Tadalafil 5 mg (N = 4), Modified ITT, Part A
# [4] = Tadalafil 5 mg (N = 4), patients with diagnosis of SSc, sensitivity analysis, Modified ITT, Part A
# [5] = Tadalafil 5 mg, Day 12, PP Population Part A, SSc patients
# [6] = Tadalafil 5 mg, Day 12, PP Population, Part A
# [7] = Tadalafil 5 mg, PP Population Part A, SSc patients
smiles,measurement,setting,value
"CN1CC(=O)N2[C@H](c3ccc4c(c3)OCO4)c3[nH]c4ccccc4c3C[C@@H]2C1=O [Tadalafil, tadalafil]","SHAQ alternative disability index, In Clinic Visit (Day 12), Mean",[1],0.375
same,"SHAQ alternative disability index, In Clinic Visit (Day 12), Median",[1],0.250
same,"SHAQ Visual Analogue Scale - Breathing Problems: Baseline, Mean",[2],3.240
same,"SHAQ Visual Analogue Scale - Breathing Problems: Baseline, Median",[2],3.100
same,"SHAQ Visual Analogue Scale - Breathing Problems: Change from Baseline (Day 12), Mean",[2],0.500
same,"SHAQ Visual Analogue Scale - Breathing Problems: Change from Baseline (Day 12), Median",[2],1.050
same,"SHAQ Visual Analogue Scale - Breathing Problems: In-Clinic Visit (Day 12), Mean",[2],4.300
same,"SHAQ Visual Analogue Scale - Breathing Problems: In-Clinic Visit (Day 12), Median",[2],4.000
same,"SHAQ Visual Analogue Scale - Breathing Problems: Percent Change from Baseline (Day 12), Mean",[2],−2.66%
same,"SHAQ Visual Analogue Scale - Breathing Problems: Percent Change from Baseline (Day 12), Median",[2],29.58%
same,"SHAQ Visual Analogue Scale - Finger Ulcers: Baseline, Mean",[2],1.700
same,"SHAQ Visual Analogue Scale - Finger Ulcers: Baseline, Median",[2],0.100
same,"SHAQ Visual Analogue Scale - Finger Ulcers: Change from Baseline (Day 12), Mean",[2],0.250
same,"SHAQ Visual Analogue Scale - Finger Ulcers: Change from Baseline (Day 12), Median",[2],0.000
same,"SHAQ Visual Analogue Scale - Finger Ulcers: In-Clinic Visit (Day 12), Mean",[2],2.325
same,"SHAQ Visual Analogue Scale - Finger Ulcers: In-Clinic Visit (Day 12), Median",[2],0.050
same,"SHAQ Visual Analogue Scale - Finger Ulcers: Percent Change from Baseline (Day 12), Mean",[2],6.10%
same,"SHAQ Visual Analogue Scale - Finger Ulcers: Percent Change from Baseline (Day 12), Median",[2],6.10%
same,"SHAQ Visual Analogue Scale - Intestinal Problems: Baseline, Mean",[2],2.700
same,"SHAQ Visual Analogue Scale - Intestinal Problems: Baseline, Median",[2],0.900
same,"SHAQ Visual Analogue Scale - Intestinal Problems: Change from Baseline (Day 12), Mean",[2],−0.125
same,"SHAQ Visual Analogue Scale - Intestinal Problems: Change from Baseline (Day 12), Median",[2],0.000
same,"SHAQ Visual Analogue Scale - Intestinal Problems: In-Clinic Visit (Day 12), Mean",[2],3.025
same,"SHAQ Visual Analogue Scale - Intestinal Problems: In-Clinic Visit (Day 12), Median",[2],1.450
same,"SHAQ Visual Analogue Scale - Intestinal Problems: Percent Change from Baseline (Day 12), Mean",[2],−6.92%
same,"SHAQ Visual Analogue Scale - Intestinal Problems: Percent Change from Baseline (Day 12), Median",[2],0.00%
same,"SHAQ Visual Analogue Scale - Overall Disease Severity: Baseline, Mean",[2],4.100
same,"SHAQ Visual Analogue Scale - Overall Disease Severity: Baseline, Median",[2],5.500
same,"SHAQ Visual Analogue Scale - Overall Disease Severity: Change from Baseline (Day 12), Mean",[2],0.625
same,"SHAQ Visual Analogue Scale - Overall Disease Severity: Change from Baseline (Day 12), Median",[2],0.700
same,"SHAQ Visual Analogue Scale - Overall Disease Severity: In-Clinic Visit (Day 12), Mean",[2],5.600
same,"SHAQ Visual Analogue Scale - Overall Disease Severity: In-Clinic Visit (Day 12), Median",[2],6.550
same,"SHAQ Visual Analogue Scale - Overall Disease Severity: Percent Change from Baseline (Day 12), Mean",[2],32.49%
same,"SHAQ Visual Analogue Scale - Overall Disease Severity: Percent Change from Baseline (Day 12), Median",[2],26.79%
same,"SHAQ Visual Analogue Scale - Raynaud's: Baseline, Mean",[2],4.860
same,"SHAQ Visual Analogue Scale - Raynaud's: Baseline, Median",[2],6.400
same,"SHAQ Visual Analogue Scale - Raynaud's: Change from Baseline (Day 12), Mean",[2],−0.825
same,"SHAQ Visual Analogue Scale - Raynaud's: Change from Baseline (Day 12), Median",[2],−0.500
same,"SHAQ Visual Analogue Scale - Raynaud's: In-Clinic Visit (Day 12), Mean",[2],4.950
same,"SHAQ Visual Analogue Scale - Raynaud's: In-Clinic Visit (Day 12), Median",[2],5.200
same,"SHAQ Visual Analogue Scale - Raynaud's: Percent Change from Baseline (Day 12), Mean",[2],−19.71%
same,"SHAQ Visual Analogue Scale - Raynaud's: Percent Change from Baseline (Day 12), Median",[2],−20.67%
same,"SHAQ Overall Severity: Baseline, Mean",[3],4.975
same,"SHAQ Overall Severity: Baseline, Median",[3],6.000
same,"SHAQ Overall Severity: Change from Baseline, Mean",[3],"0.625,"
same,"SHAQ Overall Severity: Change from Baseline, Median",[3],0.700
same,"SHAQ Overall Severity: Day 12, Mean",[3],5.600
same,"SHAQ Overall Severity: Day 12, Median",[3],6.550
same,"SHAQ Overall Severity: Percent Change from Baseline, Mean",[3],32.49%
same,"SHAQ Overall Severity: Percent Change from Baseline, Median",[3],26.790%
same,"SHAQ Standard Disability Index: Baseline, Mean",[4],0.594
same,"SHAQ Standard Disability Index: Baseline, Median",[4],0.625
same,"SHAQ Standard Disability Index: Change from Baseline, Mean",[4],−0.063
same,"SHAQ Standard Disability Index: Change from Baseline, Median",[4],−0.063
same,"SHAQ Standard Disability Index: Day 12, Mean",[4],0.531
same,"SHAQ Standard Disability Index: Day 12, Median",[4],0.563
same,"SHAQ Standard Disability Index: Percent Change from Baseline, Mean",[4],−9.26%
same,"SHAQ Standard Disability Index: Percent Change from Baseline, Median",[4],−11.11%
same,"SHAQ Visual Analogue Scale - Breathing Problems, Change from Baseline, Mean",[5],0.500
same,"SHAQ Visual Analogue Scale - Breathing Problems, Change from Baseline, Median",[5],1.050
same,"SHAQ Visual Analogue Scale - Breathing Problems, Percent Change from Baseline, Mean",[5],−2.66%
same,"SHAQ Visual Analogue Scale - Breathing Problems, Percent Change from Baseline, Median",[5],29.58%
same,"SHAQ Visual Analogue Scale - Finger Ulcers, Change from Baseline, Mean",[5],0.250
same,"SHAQ Visual Analogue Scale - Finger Ulcers, Change from Baseline, Median",[5],0.000
same,"SHAQ Visual Analogue Scale - Finger Ulcers, Percent Change from Baseline, Mean",[5],6.10%
same,"SHAQ Visual Analogue Scale - Finger Ulcers, Percent Change from Baseline, Median",[5],6.10%
same,"SHAQ Visual Analogue Scale - Intestinal Problems, Change from Baseline, Mean",[5],−0.125
same,"SHAQ Visual Analogue Scale - Intestinal Problems, Change from Baseline, Median",[5],0.000
same,"SHAQ Visual Analogue Scale - Intestinal Problems, Percent Change from Baseline, Mean",[5],−6.92%
same,"SHAQ Visual Analogue Scale - Intestinal Problems, Percent Change from Baseline, Median",[5],0.00%
same,"SHAQ Visual Analogue Scale - Overall Disease Severity, Change from Baseline, Mean",[5],0.625
same,"SHAQ Visual Analogue Scale - Overall Disease Severity, Change from Baseline, Median",[5],0.700
same,"SHAQ Visual Analogue Scale - Overall Disease Severity, Percent Change from Baseline, Mean",[5],32.49%
same,"SHAQ Visual Analogue Scale - Overall Disease Severity, Percent Change from Baseline, Median",[5],26.79%
same,"SHAQ Visual Analogue Scale - Pain, Change from Baseline, Mean",[5],1.000
same,"SHAQ Visual Analogue Scale - Pain, Change from Baseline, Median",[5],0.800
same,"SHAQ Visual Analogue Scale - Pain, Percent Change from Baseline, Mean",[5],31.35%
same,"SHAQ Visual Analogue Scale - Pain, Percent Change from Baseline, Median",[5],10.81%
same,"SHAQ Visual Analogue Scale - Raynaud's, Change from Baseline, Mean",[5],−0.825
same,"SHAQ Visual Analogue Scale - Raynaud's, Change from Baseline, Median",[5],−0.500
same,"SHAQ Visual Analogue Scale - Raynaud's, Percent Change from Baseline, Mean",[5],−19.71%
same,"SHAQ Visual Analogue Scale - Raynaud's, Percent Change from Baseline, Median",[5],−20.67%
same,"SHAQ Alternative Disability Index: Change from Baseline, Mean",[6],−0.094
same,"SHAQ Alternative Disability Index: Change from Baseline, Median",[6],−0.125
same,"SHAQ Alternative Disability Index: In-Clinic Visit (Day 12), Mean",[6],0.375
same,"SHAQ Alternative Disability Index: In-Clinic Visit (Day 12), Median",[6],0.250
same,"SHAQ Alternative Disability Index: Percent Change from Baseline, Mean",[6],−43.70%
same,"SHAQ Alternative Disability Index: Percent Change from Baseline, Median",[6],−20.00%
same,"SHAQ Standard Disability Index: Change from Baseline, Mean",[6],−0.063
same,"SHAQ Standard Disability Index: Change from Baseline, Median",[6],−0.063
same,"SHAQ Standard Disability Index: In-Clinic Visit (Day 12), Mean",[6],0.531
same,"SHAQ Standard Disability Index: In-Clinic Visit (Day 12), Median",[6],0.563
same,"SHAQ Standard Disability Index: Percent Change from Baseline, Mean",[6],−9.26%
same,"SHAQ Standard Disability Index: Percent Change from Baseline, Median",[6],−11.11%
same,"SHAQ Visual Analogue Scale - Pain: Change from Baseline, Mean",[6],1.000
same,"SHAQ Visual Analogue Scale - Pain: Change from Baseline, Median",[6],0.800
same,"SHAQ Visual Analogue Scale - Pain: In-Clinic Visit (Day 12), Mean",[6],5.300
same,"SHAQ Visual Analogue Scale - Pain: In-Clinic Visit (Day 12), Median",[6],5.850
same,"SHAQ Visual Analogue Scale - Pain: Percent Change from Baseline, Mean",[6],31.35%
same,"SHAQ Visual Analogue Scale - Pain: Percent Change from Baseline, Median",[6],10.81%
same,"SHAQ Visual Analogue Scale - Breathing Problems, In-Clinic Visit (Day 12), Mean",[7],4.300
same,"SHAQ Visual Analogue Scale - Breathing Problems, In-Clinic Visit (Day 12), Median",[7],4.000
same,"SHAQ Visual Analogue Scale - Finger Ulcers, In-Clinic Visit (Day 12), Mean",[7],2.325
same,"SHAQ Visual Analogue Scale - Finger Ulcers, In-Clinic Visit (Day 12), Median",[7],0.050
same,"SHAQ Visual Analogue Scale - Intestinal Problems, In-Clinic Visit (Day 12), Mean",[7],3.025
same,"SHAQ Visual Analogue Scale - Intestinal Problems, In-Clinic Visit (Day 12), Median",[7],1.450
same,"SHAQ Visual Analogue Scale - Overall Disease Severity, In-Clinic Visit (Day 12), Mean",[7],5.600
same,"SHAQ Visual Analogue Scale - Overall Disease Severity, In-Clinic Visit (Day 12), Median",[7],6.550
same,"SHAQ Visual Analogue Scale - Pain, In-Clinic Visit (Day 12), Mean",[7],5.300
same,"SHAQ Visual Analogue Scale - Pain, In-Clinic Visit (Day 12), Median",[7],5.850
same,"SHAQ Visual Analogue Scale - Raynaud's, In-Clinic Visit (Day 12), Mean",[7],4.950
same,"SHAQ Visual Analogue Scale - Raynaud's, In-Clinic Visit (Day 12), Median",[7],5.200
